Test results reported in patent US20020137929A1, “1 - (3-heterocyclylphenyl) isothiourea, -isourea, -guanidine and -amidine herbicidal agents” (Intellectual Property Department, BASF Aktiengesellschaft, priority 1998, published 2002).

What was measured:
[1] = test system: GALAP (Galium); experiment: Preemergence herbicidal evaluation; type: in vivo, Galium aparine; conditions: rated 4-5 weeks after treatment
Procedure, shortened: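 Greenhouse preemergence test: seed-soil mix sown on ~1 inch soil; aqueous acetone spray at equivalent of ~0.0156–0.500 kg/ha; greenhouse-held and watered; scored 0–9 visually at 4–5 weeks.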

[2] = test system: GALAP (Galium); experiment: Postemergence herbicidal evaluation; type: in vivo, Galium aparine; conditions: for GALAP herbicidal rating / Herbicidal rating GALAP: postemergence
Procedure, shortened: (§1)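 Young plants, roughly two weeks from seeding, receive the active ingredient as a sprayed dispersion (acetone/water 50/50, 0.5% TWEEN 20) at 40 psi. Doses span about 0.0156 to 0.500 kg/ha. A visual score from 0 to 9 compares treated with control plants four to five weeks on.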

[3] = test system: ABUTH (Velvetleaf); experiment: Postemergence herbicidal evaluation; type: in vivo, Abutilon theophrasti; conditions: for ABUTH herbicidal rating / Herbicidal rating ABUTH: postemergence
Procedure, shortened: as §1

[4] = test system: MOOVA (Monochoria); experiment: Postemergence weed control under flooded paddy conditions; type: in vivo, Monochoria vaginalis; conditions: postemergence weeds
Procedure, shortened: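 Weeds 3 to 5 cm tall and rice seedlings at the 1.5 to 2.5 leaf stage were flooded, with water held 1.5 to 3 cm above the soil. Compounds in 50/50 v/v aqueous/acetone went into the flood water at about 0.0313 to 0.500 kg/ha. Visual 0-9 ratings versus control were made 3 to 4 weeks later.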

[5] = rate 0.0313 kg/ha, 3-4 weeks after treatment
[6] = rate 0.0625 kg/ha, 3-4 weeks after treatment
[7] = rate 0.1250 kg/ha, 3-4 weeks after treatment
[8] = rate 0.2500 kg/ha, 3-4 weeks after treatment
[9] = rate 0.1160 kg/ha, 3-4 weeks after treatment
[10] = rate 0.2310 kg/ha, 3-4 weeks after treatment
[11] = rate 0.4630 kg/ha, 3-4 weeks after treatment

SMILES | GALAP preemergence herbicidal rating ([1]; rate 0.0156 kg/ha) | GALAP preemergence herbicidal rating ([1]; rate 0.0313 kg/ha) | GALAP preemergence herbicidal rating ([1]; rate 0.0625 kg/ha) | GALAP preemergence herbicidal rating ([1]; rate 0.1250 kg/ha) | GALAP preemergence herbicidal rating ([1]; rate 0.2500 kg/ha) | GALAP herbicidal rating ([2]; rate 0.0313 kg/ha) | GALAP herbicidal rating ([2]; rate 0.0625 kg/ha) | ABUTH herbicidal rating ([3]; rate 0.0313 kg/ha) | ABUTH herbicidal rating ([3]; rate 0.0625 kg/ha) | Herbicidal rating MOOVA [4, 5] | Herbicidal rating MOOVA [4, 6] | Herbicidal rating MOOVA [4, 7] | Herbicidal rating MOOVA [4, 8] | GALAP herbicidal rating ([2]; rate 0.0156 kg/ha) | ABUTH herbicidal rating ([3]; rate 0.0156 kg/ha) | Preemergence herbicidal rating GALAP ([1]; rate 0.0156 kg/ha) | Preemergence herbicidal rating GALAP ([1]; rate 0.0313 kg/ha) | Preemergence herbicidal rating GALAP ([1]; rate 0.0625 kg/ha) | Preemergence herbicidal rating GALAP ([1]; rate 0.1250 kg/ha) | Preemergence herbicidal rating GALAP ([1]; rate 0.2500 kg/ha) | also measured
CCOC(=O)CN1C(=O)CSC1=Nc1cc(-n2c(=O)cc(C(F)(F)F)n(C)c2=O)c(F)cc1Cl [Compound 8, Ethyl 2-{{2-chloro-5-[3,6-dihydro-3-methyl-2,6-dioxo-4-(trifluoromethyl)-1(2H)pyrimidinyl]-4-fluorophenyl}imino}-4-oxo-3-thiazolidineacetate] | 0.0 | 1.3 | 5.5 | 7.5 | 9.0 | 4.5 | 6.3 | 9.0 | 9.0 | 9.0 | 9.0 | 9.0 | 9.0 |  |  |  |  |  |  |  | GALAP preemergence herbicidal rating ([1]; rate 0.5000 kg/ha): 9.0; GALAP herbicidal rating ([2]; rate 0.0157 kg/ha): 3.0; GALAP herbicidal rating ([2]; rate 0.1250 kg/ha): 6.8; ABUTH herbicidal rating ([3]; rate 0.0157 kg/ha): 9.0; ABUTH herbicidal rating ([3]; rate 0.1250 kg/ha): 9.0
CCOC(=O)CN1C(=O)C2(CC2)SC1=Nc1cc(-n2c(=O)cc(C(F)(F)F)n(C)c2=O)c(F)cc1Cl [Compound 15, Ethyl 5-{{2-chloro-5-[3,6-dihydro-3-methyl-2,6-dioxo-4-(trifluoromethyl)-1(2H)-pyrimidinyl]-4-fluorophenyl}imino}-7-oxo-4-thia-6-azaspiro[2.4]-heptane-6-acetate] | 0.0 | 0.0 | 9.0 | 9.0 | 9.0 | 0.0 | 3.0 | 9.0 | 9.0 | 9.0 | 9.0 | 9.0 | 9.0 | 0.0 | 9.0 |  |  |  |  |  | GALAP herbicidal rating ([2]; rate 0.1250 kg/ha): 6.0; ABUTH herbicidal rating ([3]; rate 0.1250 kg/ha): 9.0
CCOC(=O)CN1C(=O)CO/C1=N/c1cc(-n2c(=O)cc(C(F)(F)F)n(C)c2=O)c(F)cc1Cl [Compound 22, Ethyl 2-{{2-chloro-5-[3,6-dihydro-3-methyl-2,6-dioxo-4-(trifluoromethyl)-1(2H)-pyrimidinyl]-4-fluorophenyl}imino}-4-oxo-3-oxazolidineacetate] | 0.0 | 0.0 | 0.0 | 0.0 | 9.0 |  |  |  |  |  |  |  |  |  |  |  |  |  |  |  | GALAP herbicidal rating ([2]; rate 0.0158 kg/ha): 4.0; GALAP herbicidal rating ([2]; rate 0.0315 kg/ha): 4.0; GALAP herbicidal rating ([2]; rate 0.0630 kg/ha): 3.0; ABUTH herbicidal rating ([3]; rate 0.0158 kg/ha): 9.0; ABUTH herbicidal rating ([3]; rate 0.0315 kg/ha): 9.0; ABUTH herbicidal rating ([3]; rate 0.0630 kg/ha): 9.0; Herbicidal rating MOOVA [4, 9]: 9.0; Herbicidal rating MOOVA [4, 10]: 9.0; Herbicidal rating MOOVA [4, 11]: 9.0
CN(C)N1C(=O)CSC1=Nc1cc(-n2c(=O)cc(C(F)(F)F)n(C)c2=O)c(F)cc1Cl [Compound 23, 3-{4-Chloro-5-{[3-(dimethylamino)-4-oxo-2-thiazolidinylidine]amino}-2-fluorophenyl}-1-methyl-6-(trifluoromethyl)-2,4(1H,3H)-pyrimidinedione] | 0.0 | 1.0 | 1.0 | 0.0 | 2.0 |  |  |  |  |  |  |  |  |  |  |  |  |  |  |  | GALAP herbicidal rating ([2]; rate 0.0158 kg/ha): 3.0; GALAP herbicidal rating ([2]; rate 0.0315 kg/ha): 7.0; GALAP herbicidal rating ([2]; rate 0.0630 kg/ha): 9.0; ABUTH herbicidal rating ([3]; rate 0.0158 kg/ha): 3.0; ABUTH herbicidal rating ([3]; rate 0.0315 kg/ha): 4.0; ABUTH herbicidal rating ([3]; rate 0.0630 kg/ha): 5.0; Herbicidal rating MOOVA [4, 9]: 9.0; Herbicidal rating MOOVA [4, 10]: 9.0; Herbicidal rating MOOVA [4, 11]: 9.0
CCOC(=O)CN1C(=O)CN(C)C1=Nc1cc(-n2c(=O)cc(C(F)(F)F)n(C)c2=O)c(F)cc1Cl [Compound 25, Ethyl 2-{{2-chloro-5-[3,6-dihydro-3-methyl-2,6-dioxo-4-(trifluoromethyl)-1(2H)-pyrimidinyl]-4-fluorophenyl}imino}-3-methyl-5-oxo-1-imidazolidineacetate] |  |  | 0.0 | 0.0 | 0.0 | 5.0 | 7.0 | 9.0 | 9.0 | 9.0 | 9.0 | 9.0 | 9.0 | 2.0 | 9.0 | 0.0 | 0.0 |  |  |  | 
Cn1c(C(F)(F)F)cc(=O)n(-c2cc(N=C3SCC(=O)N3Cc3ccccc3)c(Cl)cc2F)c1=O [Compound 26] |  |  |  |  |  | 5.0 | 5.0 | 9.0 | 9.0 | 9.0 | 9.0 | 9.0 | 9.0 | 3.0 | 9.0 | 0.0 | 0.0 | 0.0 | 9.0 | 9.0 | 
COC(=O)CCCN1C(=O)CSC1=Nc1cc(-n2c(=O)cc(C(F)(F)F)n(C)c2=O)c(F)cc1Cl [Compound 29, Methyl 2-{{2-chloro-5-[3,6-dihydro-3-methyl-2,6-dioxo-4-(trifluoromethyl)-1(2H)-pyrimidinyl]-4-fluorophenyl}imino}-4-oxo-3-thiazolidinebutyrate] |  |  |  |  |  |  |  |  |  | 0.0 | 0.0 | 0.0 | 0.0 |  |  |  |  | 0.0 | 0.0 | 0.0 | Postemergence herbicidal rating GALAP ([2]; Rate 0.0158 kg/ha): 1.0; Postemergence herbicidal rating GALAP ([2]; Rate 0.0315 kg/ha): 1.0; Postemergence herbicidal rating GALAP ([2]; Rate 0.0630 kg/ha): 7.0; Postemergence herbicidal rating ABUTH ([3]; Rate 0.0158 kg/ha): 9.0; Postemergence herbicidal rating ABUTH ([3]; Rate 0.0315 kg/ha): 7.0; Postemergence herbicidal rating ABUTH ([3]; Rate 0.0630 kg/ha): 9.0
Cn1c(C(F)(F)F)cc(=O)n(-c2cc(N=C3NC(=O)CS3)c(Cl)cc2F)c1=O [Compound 39, 3-{4-Chloro-2-fluoro-5-[(4-oxo-2-thiazolidinylidene)amino]phenyl}-1-methyl-6-(trifluoromethyl)-2,4(1H,3H)-pyrimidinedione] |  |  |  |  |  |  |  |  |  | 9.0 | 9.0 | 9.0 | 9.0 |  |  | 0.0 | 0.0 | 0.0 | 6.0 | 9.0 | Postemergence herbicidal rating GALAP ([2]; Rate 0.0158 kg/ha): 0.0; Postemergence herbicidal rating GALAP ([2]; Rate 0.0315 kg/ha): 0.0; Postemergence herbicidal rating GALAP ([2]; Rate 0.0630 kg/ha): 0.0; Postemergence herbicidal rating ABUTH ([3]; Rate 0.0158 kg/ha): 0.0; Postemergence herbicidal rating ABUTH ([3]; Rate 0.0315 kg/ha): 9.0; Postemergence herbicidal rating ABUTH ([3]; Rate 0.0630 kg/ha): 9.0
C=CCN1C(=O)C(CC(=O)NS(=O)(=O)c2ccccc2)SC1=Nc1cc(-n2c(=O)cc(C(F)(F)F)n(C)c2=O)c(F)cc1Cl (centres unmarked) [Compound 101, 3-Allyl-2-{{2-chloro-5-[3,6-dihydro-3-methyl-2,6-dioxo-4-(trifluoromethyl)-1(2H)-pyrimidinyl]-4-fluorophenyl}imino}-4-oxo-N-(phenylsulfonyl)-5-thiazolidineacetamide] |  |  |  |  |  |  |  |  |  |  |  |  |  |  |  |  |  |  |  |  | Herbicidal rating GALAP ([2]; rate 0.0156 kg/ha): 0.0; Herbicidal rating GALAP ([2]; rate 0.0313 kg/ha): 1.0; Herbicidal rating GALAP ([2]; rate 0.0625 kg/ha): 1.0; Herbicidal rating GALAP ([2]; rate 0.1250 kg/ha): 2.0; Herbicidal rating ABUTH ([3]; rate 0.0156 kg/ha): 3.0; Herbicidal rating ABUTH ([3]; rate 0.0313 kg/ha): 7.0; Herbicidal rating ABUTH ([3]; rate 0.0625 kg/ha): 9.0; Herbicidal rating ABUTH ([3]; rate 0.1250 kg/ha): 9.0; Herbicidal rating MOOVA ([4]; Rate 0.0313 kg/ha, rated 3 to 4 weeks after treatment): 5.0; Herbicidal rating MOOVA ([4]; Rate 0.0625 kg/ha, rated 3 to 4 weeks after treatment): 5.0; Herbicidal rating MOOVA ([4]; Rate 0.1250 kg/ha, rated 3 to 4 weeks after treatment): 7.0; Herbicidal rating MOOVA ([4]; Rate 0.2500 kg/ha, rated 3 to 4 weeks after treatment): 9.0; Herbicidal rating MOOVA ([4]; Rate 0.5000 kg/ha, rated 3 to 4 weeks after treatment): 9.0
